Measurements taken from PMC9814657, “Generative and reinforcement learning approaches for the automated de novo design of bioactive compounds” (Communications Chemistry, 2022).

Columns and labels:
[1] = molecular target: T1, epidermal growth factor receptor (EGFR) (Homo sapiens, UniProt P00533); assay: biochemical; parameters: 33P radiometric HotSpot filter-binding EGFR kinase assay, 10 uM ATP, Reaction Biology; settings: 10 uM ATP
Experimental: (§1) Compounds that emerged as computational hits were purchased from Enamine (https://www.enaminestore.com/) and resuspended in 100% DMSO at 10 mM concentration. In vitro experiments were performed at Reaction Biology (https://www.reactionbiology.com/) using a radioactive assay based on the transfer of ^33P-labeled phosphate from ATP to the kinase substrate. The HotSpot^SM assay utilizes a miniaturized filter binding, where reaction mixtures are spotted onto filter papers. Then reaction mixture binds the radioisotope-labeled catalytic product. Unreacted phosphate is removed via washing of the filter papers. All reactions were carried out at 10 μM ATP concentrations. Seventeen computational hit molecules were matched with Enamine REAL. All of the predicted active compounds were derivatives of 4-anilinoquinazoline, a chemotype that was well represented in Enamine REAL (Table S1). The predicted active compounds contained a few small substituents on the quinazoline ring (positions 5–8: F, Cl, Br, OCH3) but a wide range of substituents on the 4-anilino group. […] The twenty three 4-anilinoquinazoline analogs were dissolved in DMSO and sent to Reaction Biology (https://www.reactionbiology.com/) for EGFR enzymatic assay screening. Two compounds in the predicted active series were insoluble in DMSO; therefore, biological tests were not performed. The 4-anilinoquinazoline analogs were initially tested in single-dose duplicate mode at a concentration of 1 μM and percent inhibition relative to DMSO control was determined (Table S1).

[2] = molecular target: T1, epidermal growth factor receptor (EGFR); assay: biochemical; parameters: 33P radiometric HotSpot filter-binding EGFR kinase assay, 10 uM ATP, Reaction Biology; settings: 10 uM ATP; read-out: EGFR pIC50 (converted)
Experimental: as §1, with “REAL.” for “REAL. All of the predicted active compounds were derivatives of 4-anilinoquinazoline, a chemotype that was well represented in Enamine REAL (Table S1). The predicted active compounds contained a few small substituents on the quinazoline ring (positions 5–8: F, Cl, Br, OCH3) but a wide range of substituents on the 4-anilino group.”, “Two compounds in the predicted active series were insoluble in DMSO; therefore, biological tests were not performed.” left out

[3] = molecular target: T1, epidermal growth factor receptor (EGFR); assay: […] radiometric HotSpot kinase assay, 10-dose IC50, […] ATP (Reaction Biology); assay type: biochemical

T1 sequence (P00533 25-1210): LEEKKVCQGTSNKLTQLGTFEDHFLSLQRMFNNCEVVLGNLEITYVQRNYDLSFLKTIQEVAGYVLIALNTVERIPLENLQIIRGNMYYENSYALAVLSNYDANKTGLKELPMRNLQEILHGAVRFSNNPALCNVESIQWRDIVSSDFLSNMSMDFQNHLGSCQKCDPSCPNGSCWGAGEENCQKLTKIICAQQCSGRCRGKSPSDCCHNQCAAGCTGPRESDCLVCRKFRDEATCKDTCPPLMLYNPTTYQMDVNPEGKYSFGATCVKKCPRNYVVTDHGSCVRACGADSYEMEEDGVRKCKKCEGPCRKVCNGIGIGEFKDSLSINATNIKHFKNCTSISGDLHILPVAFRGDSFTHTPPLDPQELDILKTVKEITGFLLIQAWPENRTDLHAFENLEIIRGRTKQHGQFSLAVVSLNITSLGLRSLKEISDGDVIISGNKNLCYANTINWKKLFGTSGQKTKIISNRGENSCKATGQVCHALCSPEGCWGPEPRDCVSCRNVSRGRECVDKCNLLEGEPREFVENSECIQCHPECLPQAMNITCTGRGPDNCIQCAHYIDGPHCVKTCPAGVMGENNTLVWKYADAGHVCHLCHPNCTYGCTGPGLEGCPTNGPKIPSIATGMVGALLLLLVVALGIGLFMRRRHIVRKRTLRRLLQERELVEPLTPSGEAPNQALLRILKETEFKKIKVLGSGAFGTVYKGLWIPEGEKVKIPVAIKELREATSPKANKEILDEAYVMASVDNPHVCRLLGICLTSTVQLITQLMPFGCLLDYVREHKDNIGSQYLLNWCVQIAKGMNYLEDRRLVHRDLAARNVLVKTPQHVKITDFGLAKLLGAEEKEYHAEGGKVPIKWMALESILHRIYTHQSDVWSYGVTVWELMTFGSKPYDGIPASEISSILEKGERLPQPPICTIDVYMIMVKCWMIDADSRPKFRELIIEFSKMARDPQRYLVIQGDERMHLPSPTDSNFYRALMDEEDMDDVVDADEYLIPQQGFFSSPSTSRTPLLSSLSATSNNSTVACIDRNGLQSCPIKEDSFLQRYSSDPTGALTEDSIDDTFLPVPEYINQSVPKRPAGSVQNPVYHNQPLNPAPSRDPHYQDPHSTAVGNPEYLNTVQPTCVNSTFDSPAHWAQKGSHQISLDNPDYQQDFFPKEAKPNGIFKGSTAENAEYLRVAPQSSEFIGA

Row | Compound | inhibition at 1 µM [1] [%] | other results
1 | Fc1ccc2ncnc(Nc3ccc(N4CCCC4)cc3)c2c1 [ZINC000041479925] | 8 | –
2 | Fc1ccc(Nc2ncnc3ccc(F)cc23)cc1 [ZINC000092611293] | 12 | –
3 | Nc1c(Cl)cc(Nc2ncnc3ccc(F)cc23)cc1Cl [ZINC000301931984] | 89 | IC50 [2]: 39.8 nM
4 | CN(C)CCc1ccc(Nc2ncnc3ccc(F)cc23)cc1 [ZINC000301950472] | 10 | –
5 | COCCOc1ccc(Nc2ncnc3cc(F)c(OC)cc23)cc1F [ZINC000302555896] | 12 | –
6 | OC1CCCCC1Oc1ccc(Nc2ncnc3ccc(F)cc23)cc1 (centres unmarked) [ZINC000440544230] | 4 | –
7 | Cc1ccc(Nc2ncnc3cccc(F)c23)cc1F [ZINC000480349471] | 83 | IC50 [2]: 200 nM
8 | COCCOc1ccc(Nc2ncnc3cccc(F)c23)cc1F [ZINC000480418233] | 8 | –
9 | OCCCOc1ccc(Nc2ncnc3cc(Cl)ccc23)cc1 [ZINC000572311742] | 0 | –
10 | CN(C)CCc1ccc(Nc2ncnc3ccc(Cl)cc23)cc1 [ZINC000594704454] | 8 | –
11 | CN(C)CC1CCN(c2ccc(Nc3ncnc4ccc(Br)cc34)cc2)CC1 [ZINC000737413605] | 14 | –
12 | Fc1ccc(Nc2ncnc3ccc(Br)cc23)cc1 [compound 1, Z1192045732] | – | pIC50 [3]: 7.5 pIC50
13 | Nc1c(Cl)cc(Nc2ncnc3ccc(F)cc23)cc1Cl [compound 2, Z1576525970] | – | pIC50 [3]: 7.4 pIC50
14 | Nc1c(Cl)cc(Nc2ncnc3c(F)cccc23)cc1Cl [compound 4, Z1823625743] | – | IC50 [3]: 1400 nM

Continued, in another order:

Row | inhibition at 1 µM [1] [%] | Compound | other results
15 | 96 | Fc1ccc(Nc2ncnc3ccc(Br)cc23)cc1 [ZINC000000099087] | IC50 [2]: 31.6 nM
16 | 14 | CN(C)C1CCN(c2ccc(Nc3ncnc4ccc(F)cc34)cc2)CC1 [ZINC000089266948] | –
17 | 10 | OC1CCN(c2ccc(Nc3ncnc4ccc(Br)cc34)cc2)CC1 [ZINC000112964683] | –
18 | 12 | CNC(=O)CCOc1ccc(Nc2ncnc3cc(Cl)ccc23)cc1 [ZINC000301175853] | –
19 | 8 | CN(C)C1CCN(c2ccc(Nc3ncnc4ccc(Br)cc34)cc2)CC1 [ZINC000301979927] | –
20 | 47 | Nc1c(Cl)cc(Nc2ncnc3c(F)cccc23)cc1Cl [ZINC000302791534] | IC50 [2]: 1260 nM
21 | 12 | CN(C)C1CCN(c2ccc(Nc3ncnc4c(F)cccc34)cc2)CC1 [ZINC000302845052] | –
22 | 16 | COCCOc1ccc(Nc2ncnc3c(F)cccc23)cc1Cl [ZINC000302873009] | –
